Results taken from patent publication US20090123561A1, “Fungicide mixtures based on 1-methyl-pyrazol-4-ylcarboxanilides” (BASF AKTIENGESELLLSCHAFT, priority 2005, published 2009).

Columns and labels:
Format in all cases: in vivo
[1] = tested on: Pyrenophora [syn. Drechslera] teres; assay: Activity against net blotch of barley caused by Pyrenophora teres, 1 day protective application; details: barley seedlings, efficacy in % of untreated control, read after 6 days
Method: (§1) The active compounds, separately or jointly, were prepared as a stock solution comprising 25 mg of active compound which was made up to 10 ml using a mixture of acetone and/or dimethyl sulfoxide and the emulsifier Uniperol® EL (wetting agent having an emulsifying and dispersing action based on ethoxylated alkylphenols) in a ratio by volume of solvent/emulsifier of 99:1. The mixture was then made up to 100 ml with water. This stock solution was diluted with the solvent/emulsifier/water mixture described to give the concentration of active compound stated below.
(§2) Alternatively, the active compounds epoxiconazole and pyraclostrobin were used as a commercial formulation and diluted with water to the stated active compound concentrations.
(§3) The visually determined percentages of infected leaf areas were converted into efficacies in % of the untreated control:
(§4) The efficacy (E) is calculated as follows using Abbot's formula: […]
(§5) α corresponds to the fungicidal infection of the treated plants in % and β corresponds to the fungicidal infection of the untreated (control) plants in %
(§6) An efficacy of 0 means that the infection level of the treated plants corresponds to that of the untreated control plants; an efficacy of 100 means that the treated plants are not infected.
(§7) The expected efficacies of active compound combinations were determined using Colby's formula (Colby, S. R. “Calculating synergistic and antagonistic responses of herbicide combinations”, Weeds, 15, pp. 20-22, 1967) and compared with the observed efficacies.
(§8) E=x+y−x·y/100 Colby's formula • E expected efficacy, expressed in % of the untreated control, when using the mixture of the active compounds A and B at the concentrations a and b • x efficacy, expressed in % of the untreated control, when using the active compound A at the concentration a • y efficacy, expressed in % of the untreated control, when using the active compound B at the concentration b
Activity Against Net Blotch of Barley Caused by Pyrenophora teres, 1 Day Protective Application
Leaves of potted barley seedlings were sprayed to runoff point with an aqueous suspension having the active compound concentration stated below. 24 hours after the spray coating had dried on, the test plants were inoculated with an aqueous spore suspension of Pyrenophora [syn. Drechslera] teres, the net blotch pathogen. The test plants were then placed in a greenhouse at temperatures between 20 and 24° C. and at 95 to 100% relative atmospheric humidity. After 6 days, the extent of the development of the disease was determined visually in % infection of the entire leaf area.

Botrytis cinerea = assay: Activity against gray mold on bell pepper leaves caused by Botrytis cinerea, 1 day protective application; details: efficacy in % of untreated control, read after 5 days
Method: as §1, §2, §3, §4, §5, §6, §7, §8
Activity Against Gray Mold on Bell Pepper Leaves Caused by Botrytis cinerea, 1 Day Protective Application
Bell pepper seedlings of the cultivar “Neusiedler Ideal Elite” were, after 2-3 leaves were well developed, sprayed to runoff point with an aqueous suspension in the active compound concentrations stated below. The next day, the treated plants were inoculated with a spore suspension of Botrytis cinerea which comprised 1.7×10^6 spores/ml in a 2% strength aqueous biomalt solution. The test plants were then placed in a dark climatized chamber at 22 to 24° C. and high atmospheric humidity. After 5 days, the extent of the fungal infection on the leaves could be determined visually in %.

Alternaria solani = assay: Activity against early blight of tomato caused by Alternaria solani (protective spray on potted tomato plants); details: read after 5 days
Method: as §1, §2, §3, §4, §5, §6, §7, §8
Activity Against Early Blight of Tomato Caused by Alternaria solani
Leaves of potted tomato plants were sprayed to runoff point with an aqueous suspension having the active compound concentration stated below. The next day, the leaves were infected with an aqueous spore suspension of Alternaria solani in a 2% strength biomalt solution having a density of 0.17×10^6 spores/ml. The plants were then placed in a water vapor-saturated chamber at temperatures between 20 and 22° C. After 5 days, the disease on the untreated but infected control plants had developed to such an extent that the infection could be determined visually in %.

[2] = single active compound 63 mg/l, efficacy in % of untreated control (Abbot)

Fc1ccc([C@]2(Cn3cncn3)O[C@H]2c2ccccc2Cl)cc1 (racemic) [epoxiconazole, (2RS,3SR)-1-[3-(2-chlorophenyl)-2,3-epoxy-2-(4-fluorophenyl)propyl]-1H-1,2,4-triazole]
Efficacy (% of untreated control) ([1]; single active compound 1 mg/l): 0%

Cn1cc(C(=O)Nc2ccccc2-c2ccccc2C(F)(F)F)c(C(F)F)n1 [No. 40, N-(2′-trifluoromethylbiphen-2-yl)-1-methyl-3-difluoromethyl-1H-pyrazole-4-carboxamide]
Efficacy (% of untreated control) (Botrytis cinerea; single active compound 16 mg/l): 11%
Efficacy (% of untreated control) (Botrytis cinerea; single active compound 63 mg/l): 44%
Efficacy (% of untreated control) ([1]; single active compound 4 mg/l): 18%
Efficacy (% of untreated control, Abbott) (Alternaria solani; [2]): 25%

Cn1cc(C(=O)Nc2ccccc2-c2ccccc2C(F)(F)F)c(C(F)(F)F)n1 [No. 57, N-(2′-trifluoromethylbiphen-2-yl)-1-methyl-3-trifluoromethyl-1H-pyrazole-4-carboxamide]
Efficacy (% of untreated control) (Botrytis cinerea; single active compound 4 mg/l): 0%
Efficacy (% of untreated control) (Botrytis cinerea; single active compound 16 mg/l): 0%
Efficacy (% of untreated control) (Botrytis cinerea; single active compound 63 mg/l): 22%
Efficacy (% of untreated control) ([1]; single active compound 16 mg/l): 41%

N#Cc1c(Cl)c(Cl)c(Cl)c(C#N)c1Cl [chlorothalonil, 2,4,5,6-tetrachloroisophthalonitrile]
Efficacy (% of untreated control, Abbott) (Alternaria solani; [2]): 0%

COc1ccc(C(=CC(=O)N2CCOCC2)c2ccc(Cl)cc2)cc1OC [dimethomorph, 3-(4-chlorophenyl)-3-(3,4-dimethoxyphenyl)-1-morpholin-4-yl-propenone]
Efficacy (% of untreated control) ([1]; single active compound 4 mg/l): 0%

O=c1c2cc(F)ccc2nc(-n2cncn2)n1-c1ccc(Cl)cc1Cl [fluquinconazole, 3-(2,4-dichlorophenyl)-6-fluoro-2-[1,2,4]-triazol-1-yl-3H-quinazolin-4-one]
Efficacy (% of untreated control, Abbott) (Alternaria solani; single active compound 4 mg/l, efficacy in % of untreated control): 0%

CO/N=C(/C(=O)OC)c1ccccc1COc1ccccc1C [kresoximmethyl, methyl (E)-methoxyimino[α-(o-tolyloxy)-o-tolyl]acetate]
Efficacy (% of untreated control) (Botrytis cinerea; single active compound 16 mg/l): 0%
Efficacy (% of untreated control) (Botrytis cinerea; single active compound 63 mg/l): 0%

COc1cc(C)c(C(=O)c2c(OC)ccc(Br)c2C)c(OC)c1OC [metrafenone, 3′-bromo-2,3,4,6′-tetramethoxy-2′,6-dimethylbenzophenone]
Efficacy (% of untreated control) (Botrytis cinerea; single active compound 16 mg/l): 0%

COC(=O)N(OC)c1ccccc1COc1ccn(-c2ccc(Cl)cc2)n1 [pyraclostrobin, methyl N-{2-[1-(4-chlorophenyl)-1H-pyrazol-3-yloxymethyl]phenyl}(N-methoxy)carbamate]
Efficacy (% of untreated control) (Botrytis cinerea; single active compound 16 mg/l): 11%

Cc1cc(C)nc(Nc2ccccc2)n1 [pyrimethanil, 4,6-dimethylpyrimidin-2-ylphenylamine]
Efficacy (% of untreated control) (Botrytis cinerea; single active compound 4 mg/l): 0%
Efficacy (% of untreated control) (Botrytis cinerea; single active compound 63 mg/l): 0%

CC(C)(C)C(O)(CCc1ccc(Cl)cc1)Cn1cncn1 (centres unmarked) [tebuconazole, 1-(4-chlorophenyl)-4,4-dimethyl-3-[1,2,4]triazol-1-ylmethylpentan-3-ol]
Efficacy (% of untreated control) ([1]; single active compound 4 mg/l): 0%

zinc ammoniate ethylenebis(dithiocarbamate) [metiram]
Efficacy (% of untreated control, Abbott) (Alternaria solani; [2]): 0%
